{"source": "paper PMC8669469", "about": "“A Novel Locally c-di-GMP-Controlled Exopolysaccharide Synthase Required for Bacteriophage N4 Infection of Escherichia coli” (mBio, 2021)", "target": "T1, NfrB (Escherichia coli, UniProt P0AFA5)", "T1 construct": "soluble MshEN domain, NfrB^414-745", "T1 sequence (P0AFA5 414-745)": "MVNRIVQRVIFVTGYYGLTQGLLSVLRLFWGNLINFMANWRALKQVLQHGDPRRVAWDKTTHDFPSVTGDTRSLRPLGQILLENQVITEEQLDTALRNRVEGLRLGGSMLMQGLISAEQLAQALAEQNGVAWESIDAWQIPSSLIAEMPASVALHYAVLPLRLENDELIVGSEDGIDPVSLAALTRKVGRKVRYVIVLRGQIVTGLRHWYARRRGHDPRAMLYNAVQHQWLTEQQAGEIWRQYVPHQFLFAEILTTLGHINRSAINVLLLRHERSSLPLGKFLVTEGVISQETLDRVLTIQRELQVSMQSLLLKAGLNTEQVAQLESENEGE", "experiment": "microscale thermophoresis with purified protein; DRaCALA with […]-c-di-GMP and competition by unlabeled c-di-GMP", "type": "binding", "data": [{"smiles": "Nc1nc2c(ncn2[C@@H]2O[C@@H]3CO[P@](=O)(O)O[C@H]4[C@@H](O)[C@H](n5cnc6c(=O)[nH]c(N)nc65)O[C@@H]4CO[P@](=O)(O)O[C@H]3[C@H]2O)c(=O)[nH]1", "note": "[c-di-GMP]", "values": [{"measurement": "Kd", "value": "1000 ± 350", "unit": "nM"}]}]}
